Data on 1 compound can be found in patent publication US20180250306A1, “ALDEHYDE CONJUGATES AND USES THEREOF” (ALDEYRA THERAPEUTICS, INC., priority 2015, published 2018).

SMILES strings stand for the structures.

The test system of assay [1] is NFκB. The assay can be described thus: Western Blot of NFκB levels in cardiac fibroblasts. The class given is cell-based, neonatal rats. As to the method: (§1) Thirty hearts from neonatal rats were minced and digested (Neonatal Cardiomyocyte Isolation System, LK003303, Worthington). After tissue digestion and cell dissociation, cell suspensions were plated into 35 mm dishes or onto coverslips in wells of 24-well plates. Serum-free DMEM was added to the cell suspensions and the cells allowed to adhere for 2 hrs. After two hours, the cell suspension was removed and the adherent cells were fed with DMEM containing 10% fetal bovine serum (FBS). Cells were maintained in DMEM+10% FBS for 24 hours before treatments. Treatment duration was 24 hours.
(§2) Cell samples were divided in to 2 groups, stimulated with H2O2 or not stimulated with H2O2. […] The cells that were treated with H2O2 contained a final concentration of 0.001% in the wells. Drug was dissolved in 9.5% Captisol®, to a stock concentration of 5 mg/ml. […] Cells were treated for 24 hours then either fixed for immunostaining or collected as lysates for Western Blot analysis.
(§3) Whole cell lysates were used for Western blotting; nuclear and cytosolic fractions were not prepared. DMEM from cells plated in 35 mm plates was removed, the cells rinsed quickly in PBS, then incubated in 500 ul cold RIPA buffer for 20-30 minutes at 4° C. under gentle rocking. Following RIPA incubation, cells were scraped from the dish using cell scrapers and frozen at −80° C. overnight to increase cell lysing. […]
A general note: In western blotting, separated proteins are transferred to a membrane and probed.

Assay [2] in a line: Consumption of 4HNE over time (HPLC, 254 nm). The source says: 5 of 6 samples show consumption of 4HNE. One sample (2-(3-aminoquinolin-2-yl)propan-2-ol) overlaps 4HNE HPLC peak using current method. Best fit lines over this period give poorer fit to data than product formation data. Rate of 4HNE consumption can be used as an approximation of binding kinetics. […] The data were used to rank relatively each of the samples examined, including NS-2 but excluding 2-(3-aminoquinolin-2-yl)propan-2-ol.

The test system of assay [3] is NFκB. Nature of the assay: NFκB translocation to the nucleus of cardiac fibroblasts (immunostaining). The class given is cell-based, neonatal rats. To be noted: unstimulated cells; for cells with NFκB localization in nuclei: 24 hours (untreated 76.6%). As to the method: as §1, §2
After 24 hours of treatment, cells on cover slips were rinsed twice with PBS, fixed in 1% paraformaldehyde for 10 minutes then rinsed in PBS for immunostaining. Cells were permeabilized for 18 minutes in 0.1% Triton-X 100 in PBS, then rinsed three times in PBS for 15 minutes each. Following the rinses, cover slips were incubated in Image-IT FX Signal Enhancer (Invitrogen) to reduce background intensities in images. Subsequently, cells were washed three times 15 min with PBS, followed by one hour of blocking in 10% Normal Goat Serum Cells and 0.05% Triton-X 100, and then incubated overnight in 4° C. with primary antibodies diluted in PBS with 2% Normal Goat Serum and 0.05% Triton-X 100. Antibodies were applied at the following concentrations: Alpha-Smooth Muscle Actin 1:200 (V5228, Sigma-Aldrich), Vimentin 1:200 (V6630, Sigma-Aldrich) and NFκB 1:200 (C-20, Santa Cruz Biotech). Following overnight incubation, cover slips were brought to room temperature over 10 minutes and then rinsed in PBS for 15 min. […]

In assay [4] the test system is α-SMA. The assay can be described thus: Western Blot of α-SMA in cardiac fibroblasts. The class given is cell-based, neonatal rats. To be noted: for α-SMA level (Western Blot): H2O2 stimulated cardiac fibroblasts. As to the method:
as §1, §2
Whole cell lysates were used for Western blotting; nuclear and cytosolic fractions were not prepared. DMEM from cells plated in 35 mm plates was removed, the cells rinsed quickly in PBS, then incubated in 500 ul cold RIPA buffer for 20-30 minutes at 4° C. under gentle rocking. Following RIPA incubation, cells were scraped from the dish using cell scrapers and frozen at −80° C. overnight to increase cell lysing. Once thawed, cells were sonicated for 1 minute at 80% maximal power (Biologics Model 150 B/T). Samples were centrifuged at 13K for 10 min at 4° C. then supernatant was separated from pellet for analysis by gel electrophoresis. BCA protein analysis was run to determine total protein, samples normalized to 0.2 ug/uL, and then loaded onto Novex 8% Bolt gels. Gels were run for 35 min at 200 V in MOPS buffer or until the lower molecular weight band reached the bottom of the gel. Protein was then transferred to Hybond 0.45 uM Nitrocellulose (GE Healthcare) for 1 hour. Blots were blocked for 1 hr at room temperature in 5% BSA/TBSt. […]

In assay [5] the test system is JNK. The assay can be described thus: Western Blot of MAPK signaling pathways in cardiac fibroblasts. In kind it is cell-based, neonatal rats. To be noted: NS2 treatment at any level; single blot. As to the method:
as §1, §2, §3

Consider `CC(C)(O)c1nc2ccc(Cl)cc2cc1N` [NS2, 2-(3-amino-6-chloroquinolin-2-yl)propan-2-ol], for which the “NFκB level (Western Blot, whole cell lysate)” value in assay [1] (H2O2-stimulated cells, 100 μM or 1 mM) is given as “significant decreases”; in assay [1] (non-stimulated cells), “significantly decreased”. The “Gradient of 4HNE consumption” value in assay [2] (23 h) is given as “(Gradient −0.04,”; in assay [2] (first 7 h, analysis at 254 nm), “(Gradient −0.15,”. The “Consumption of 4HNE, ranking, 7 Hours” value in assay [2] (rank from most effective (1) to least) is 1. The “Consumption of 4HNE, ranking, 23 Hours” value in assay [2] (rank from most effective (1) to least, ranks 1-4 essentially identical) is listed as 3. Further, the “cells with NFκB localization in nuclei” value turned out to be 30.7% in assay [3] (10 μM) and 35.7% in assay [3] (100 μM). For the same compound, the “cells with nuclear NFκB” value in assay [3] (1 mM, very few cells, not conclusive) is given as “no cells”. Further, the “α-SMA level (Western Blot)” value in assay [4] (10 μM) is on record as “no significant change”; in assay [4] (increased dose (100 μM, 1 mM), p<0.01), “further α-SMA decreases, which were significant”. Moreover, the “α-SMA level (Western Blot) compared to control” value in assay [4] (non-stimulated cardiac fibroblasts, 10 μM, 100 μM, 1 mM) is “significant decreases”. For the same compound, the “JNK-pJNK (Western Blot)” value in assay [5] is on record as “no changes”.
